ChEMBL document CHEMBL1201862, “PubChem BioAssay data set” (2004)
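These data come from cells grown in 96-well plates and exposed to compound for 48 hours at five concentrations. GI50 = concentration required for 50% inhibition of growth.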 Activity calls are given as the source filed them. Rule as the data show it: active = GI50 up to about 1.1 µM and inactive = higher.

Columns and labels:
Test in all cases: NCI-60 cell line screen, 48 h
[1] = test system: SK-MEL-28
[2] = test system: M14
[3] = test system: SK-MEL-5
[4] = test system: RXF 393
[5] = test system: LOX IMVI
[6] = test system: UO-31
[7] = test system: SNB-78
[8] = test system: EKVX
[9] = test system: IGROV-1
[10] = test system: NCI-H460
[11] = test system: SF-295
[12] = test system: NCI-H226
[13] = test system: MOLT-4
[14] = test system: HL-60
[15] = test system: HOP-62
[16] = test system: HCT-15
[17] = test system: Malme-3M
[18] = test system: OVCAR-4
[19] = test system: RPMI-8226
[20] = test system: OVCAR-3
[21] = test system: OVCAR-8
[22] = test system: COLO 205
[23] = test system: NCI-H522
[24] = test system: SF-268
[25] = test system: HCT-116
[26] = test system: M19-MEL
[27] = test system: SN12C
[28] = test system: KM12
[29] = test system: DMS-114
[30] = test system: DLD-1
[31] = test system: SW-620
[32] = test system: HOP-92
[33] = test system: SR
[34] = test system: TK-10
[35] = test system: LXFL 529
[36] = test system: 786-0
[37] = test system: UACC-257
[38] = test system: K562
[39] = test system: NCI-H23
[40] = test system: A549
[41] = test system: KM-20L2
[42] = test system: ACHN
[43] = test system: SF-539
[44] = test system: A498
[45] = test system: HOP-18
[46] = test system: OVCAR-5
[47] = test system: SK-MEL-2
[48] = test system: DMS-273
[49] = test system: HCC 2998
[50] = test system: SNB-75
[51] = test system: SNB-19
[52] = test system: U-251
[53] = test system: UACC-62
[54] = test system: CAKI-1
[55] = test system: CCRF-CEM
[56] = test system: SK-OV-3
[57] = test system: HT-29
[58] = test system: NCI/ADR-RES
[59] = test system: T47D
[60] = test system: MDA-N
[61] = test system: BT-549
[62] = test system: MDA-MB-231
[63] = test system: MDA-MB-435
[64] = test system: MCF7
[65] = test system: PC-3
[66] = test system: Hs-578T
[67] = test system: DU-145

CC1=NOC(=O)/C1=C/c1cccc2ccccc12
GI50 [1]: > 100000 nM (inactive) | GI50 [2]: > 100000 nM (inactive) | GI50 [3]: > 100000 nM (inactive) | GI50 [4]: > 100000 nM (inactive) | GI50 [5]: > 100000 nM (inactive) | GI50 [6]: > 100000 nM (inactive) | GI50 [7]: > 100000 nM (inactive) | GI50 [8]: > 100000 nM (inactive) | GI50 [9]: > 100000 nM (inactive) | GI50 [10]: > 100000 nM (inactive) | GI50 [11]: > 100000 nM (inactive) | GI50 [12]: > 100000 nM (inactive) | GI50 [13]: > 100000 nM (inactive) | GI50 [14]: > 100000 nM (inactive) | GI50 [15]: > 100000 nM (inactive) | GI50 [16]: > 100000 nM | GI50 [17]: > 100000 nM (inactive) | GI50 [18]: > 100000 nM (inactive) | GI50 [19]: > 100000 nM (inactive) | GI50 [20]: > 100000 nM (inactive) | GI50 [21]: > 100000 nM (inactive) | GI50 [22]: > 100000 nM (inactive) | GI50 [23]: > 100000 nM (inactive) | GI50 [24]: > 100000 nM (inactive) | GI50 [25]: > 100000 nM (inactive) | GI50 [26]: > 100000 nM (inactive) | GI50 [27]: > 100000 nM (inactive) | GI50 [28]: > 100000 nM (inactive) | GI50 [29]: > 100000 nM (inactive) | GI50 [30]: > 100000 nM (inactive) | GI50 [31]: 54000 nM (inactive) | GI50 [32]: > 100000 nM (inactive) | GI50 [33]: > 100000 nM (inactive) | GI50 [34]: > 100000 nM (inactive) | GI50 [35]: > 100000 nM (inactive) | GI50 [36]: > 100000 nM (inactive) | GI50 [37]: > 100000 nM (inactive) | GI50 [38]: > 100000 nM (inactive) | GI50 [39]: > 100000 nM (inactive) | GI50 [40]: > 100000 nM (inactive) | GI50 [41]: > 100000 nM (inactive) | GI50 [42]: > 100000 nM (inactive) | GI50 [43]: > 100000 nM (inactive) | GI50 [44]: > 100000 nM (inactive) | GI50 [45]: > 100000 nM (inactive) | GI50 [46]: > 100000 nM (inactive) | GI50 [47]: > 100000 nM (inactive) | GI50 [48]: > 100000 nM (inactive) | GI50 [49]: > 100000 nM (inactive) | GI50 [50]: > 100000 nM (inactive) | GI50 [51]: > 100000 nM (inactive) | GI50 [52]: > 100000 nM (inactive) | GI50 [53]: > 100000 nM (inactive) | GI50 [54]: > 100000 nM (inactive) | GI50 [55]: > 100000 nM (inactive) | GI50 [56]: > 100000 nM (inactive) | GI50 [57]: > 100000 nM (inactive)

C/C1=C\[C@@H](O)C(=O)/C=C/C=C\c2csc(n2)[C@@H](C)NC(=O)C[C@@]2(CC1)[S+]([O-])SC(=O)[C@]2(C)O (some centres not stated) [LEINAMYCIN]
GI50 [1]: 21.4 nM (active) | GI50 [2]: 6.92 nM (active) | GI50 [3]: 6.73 nM (active) | GI50 [58]: 13.7 nM (active) | GI50 [4]: 12.7 nM (active) | GI50 [5]: 11.6 nM (active) | GI50 [6]: 30.8 nM (active) | GI50 [7]: 10 nM (active) | GI50 [8]: 261 nM (active) | GI50 [9]: 200 nM (active) | GI50 [10]: 9.86 nM (active) | GI50 [11]: 44.6 nM (active) | GI50 [12]: 206 nM (active) | GI50 [13]: 4.86 nM (active) | GI50 [14]: 0.752 nM (active) | GI50 [15]: 130 nM (active) | GI50 [16]: 13.4 nM | GI50 [17]: 6.56 nM (active) | GI50 [18]: 21.7 nM (active) | GI50 [19]: 4.45 nM (active) | GI50 [20]: 11.2 nM (active) | GI50 [21]: 17.4 nM (active) | GI50 [22]: 14.9 nM (active) | GI50 [23]: 1.88 nM (active) | GI50 [24]: 27.2 nM (active) | GI50 [26]: 34.4 nM (active) | GI50 [59]: 1.02 nM (active) | GI50 [27]: 20.3 nM (active) | GI50 [28]: 81.3 nM (active) | GI50 [29]: 35.3 nM (active) | GI50 [60]: 10.1 nM (active) | GI50 [30]: 20.9 nM (active) | GI50 [31]: 2.04 nM (active) | GI50 [32]: 2.28 nM (active) | GI50 [33]: 3.27 nM (active) | GI50 [34]: 26.6 nM (active) | GI50 [61]: 1.51 nM (active) | GI50 [35]: 13.9 nM (active) | GI50 [36]: 3.91 nM (active) | GI50 [62]: 32.1 nM (active) | GI50 [37]: 29.8 nM (active) | GI50 [38]: 4.56 nM (active) | GI50 [39]: 5.94 nM (active) | GI50 [63]: 18.7 nM (active) | GI50 [64]: 0.499 nM (active) | GI50 [40]: 120 nM (active) | GI50 [65]: 12.8 nM (active) | GI50 [41]: 88.1 nM (active) | GI50 [43]: 9.68 nM (active) | GI50 [44]: 10 nM (active) | GI50 [45]: 30.1 nM (active) | GI50 [46]: 104 nM (active) | GI50 [47]: 6.01 nM (active) | GI50 [48]: 13.5 nM (active) | GI50 [66]: 33.7 nM (active) | GI50 [49]: 184 nM (active) | GI50 [50]: 25.2 nM (active) | GI50 [51]: 284 nM (active) | GI50 [52]: 45.4 nM (active) | GI50 [53]: 12.4 nM (active) | GI50 [54]: 1.33 nM (active) | GI50 [55]: 1.05 nM (active) | GI50 [56]: 138 nM (active) | GI50 [57]: 40 nM (active) | GI50 [67]: 6.79 nM (active)
